The record followed here is ChEMBL document CHEMBL2311255, “Discovery of alkenylboronic acids as neuroprotective agents affecting multiple biological targets involved in Alzheimer's disease” (Bioorg Med Chem Lett, 2013).

pIC50: −log10 of the molar value. Activity calls are given as the source filed them. The calls are words filed in the database; no cut-off is given here.

Data set [1] relates to SH-SY5Y. Briefly: Neuroprotective activity in human APP695-transfected SH-SY5Y cells assessed as H2O2-induced GSH-glutathione disulfide level after 16 hrs (reference value: 6.85 +/- 0.92 nmol/mg). It counts as functional.
The subject of data set [2] is SH-SY5Y. The experiment in a line: Neuroprotective activity in human APP695-transfected SH-SY5Y cells assessed as GSH-glutathione disulfide level after 16 hrs (reference value: 4.71 +/- 0.48 nmol/mg). It counts as functional.
Data set [3] is described as follows: Cytotoxicity against human APP695-transfected SH-SY5Y cells at 10 uM after 24 hrs by MTT assay. It counts as cell-based. Background: Tetrazolium assays rely on reduction of a dye to a coloured formazan, in cell work by metabolically active cells.
Data set [4] has as its system SH-SY5Y. Briefly: Neuroprotective activity in human APP695-transfected SH-SY5Y cells assessed as inhibition of H2O2-induced decrease in glutathione level after 16 hrs (reference value: 22.95 +/- 0.59 nmol/mg). It counts as functional.
Data set [5] deals with Acetylcholinesterase. The experiment in a line: Inhibition of AChE (unknown origin) measured for 3 mins by Ellman colorimetric method. The following applies: Homo sapiens. A general note: In Ellman's method for cholinesterases, released thiocholine reacts with DTNB.
The test system of data set [6] is SH-SY5Y. Briefly: Neuroprotective activity in human APP695-transfected SH-SY5Y cells assessed as increase of glutathione level after 16 hrs (reference value: 17.79 +/- 1.59 nmol/mg). It counts as functional.
In data set [7] the test system is SH-SY5Y. The experiment in a line: Neuroprotective activity in human APP695-transfected SH-SY5Y cells assessed as decrease of H2O2-induced malondialdehyde level after 16 hrs (reference value: 67.83 +/- 5.86 nmol/mg). It counts as functional.
Data set [8] deals with SH-SY5Y. Briefly: Neuroprotective activity in human APP695-transfected SH-SY5Y cells assessed as inhibition of ROS production at 5 uM after 60 mins by DCFA-DA assay. It is filed as functional, cell-based.
In data set [9] the test system is SH-SY5Y. The experiment in a line: Neuroprotective activity in human APP695-transfected SH-SY5Y cells assessed as decrease of malondialdehyde level after 16 hrs (reference value: 52 +/- 1.84 nmol/mg). It is filed as functional.
In data set [10] the test system is SH-SY5Y. Briefly: Neuroprotective activity in human APP695-transfected SH-SY5Y cells assessed as inhibition of H2O2-induced ROS production at 5 uM after 60 mins by DCFA-DA assay. It counts as functional. The following applies: 1 h.
Data set [11] has as its target Amyloid-beta precursor protein (Homo sapiens) (UniProt P05067). Briefly: Inhibition of beta amyloid (25 to 35) (unknown origin) disaggregation after 4 days by thioflavin-T fluorescence analysis.
Data set [12] relates to SH-SY5Y. Briefly: Neuroprotective activity in human APP695-transfected SH-SY5Y cells assessed as inhibition of H2O2-induced ROS production after 60 mins by DCFA-DA assay. The following applies: 1 h. It is filed as functional, cell-based.
The target in data set [13] is Amyloid-beta precursor protein (Homo sapiens) (UniProt P05067). The experiment in a line: Inhibition of beta amyloid (25 to 35) (unknown origin) aggregation after 4 days by thioflavin-T fluorescence analysis.
Data set [14] relates to SH-SY5Y. The experiment in a line: Neuroprotective activity in human APP695-transfected SH-SY5Y cells assessed as inhibition of H2O2-induced increase of caspase-3 activity after 60 mins by fluorescence assay. It is filed as functional.
For data set [15], the target named is Beta-secretase 1 (Homo sapiens, UniProt P56817). The experiment in a line: Inhibition of human recombinant BACE using H-RE-(EDANS)EVNLDAEFK(DABCYL)R-OH as substrate preincubated for 1 hr before addition of substrate measured after 1 hr.
Chain of Beta-secretase 1 (P56817 whole entry): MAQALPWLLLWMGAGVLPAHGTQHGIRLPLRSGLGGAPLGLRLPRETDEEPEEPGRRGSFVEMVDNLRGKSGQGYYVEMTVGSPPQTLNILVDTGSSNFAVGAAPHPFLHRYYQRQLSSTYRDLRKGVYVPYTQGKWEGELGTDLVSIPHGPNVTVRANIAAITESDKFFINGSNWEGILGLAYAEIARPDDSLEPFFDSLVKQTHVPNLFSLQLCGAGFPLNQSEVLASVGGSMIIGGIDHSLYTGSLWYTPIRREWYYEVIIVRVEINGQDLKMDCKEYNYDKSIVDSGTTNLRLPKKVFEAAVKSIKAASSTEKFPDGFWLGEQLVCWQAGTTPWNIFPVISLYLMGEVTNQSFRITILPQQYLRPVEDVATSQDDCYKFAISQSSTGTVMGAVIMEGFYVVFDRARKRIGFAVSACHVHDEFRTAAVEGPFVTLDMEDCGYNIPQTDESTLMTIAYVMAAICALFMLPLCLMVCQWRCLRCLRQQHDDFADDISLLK

Chain of Amyloid-beta precursor protein (Homo sapiens) (P05067 whole entry): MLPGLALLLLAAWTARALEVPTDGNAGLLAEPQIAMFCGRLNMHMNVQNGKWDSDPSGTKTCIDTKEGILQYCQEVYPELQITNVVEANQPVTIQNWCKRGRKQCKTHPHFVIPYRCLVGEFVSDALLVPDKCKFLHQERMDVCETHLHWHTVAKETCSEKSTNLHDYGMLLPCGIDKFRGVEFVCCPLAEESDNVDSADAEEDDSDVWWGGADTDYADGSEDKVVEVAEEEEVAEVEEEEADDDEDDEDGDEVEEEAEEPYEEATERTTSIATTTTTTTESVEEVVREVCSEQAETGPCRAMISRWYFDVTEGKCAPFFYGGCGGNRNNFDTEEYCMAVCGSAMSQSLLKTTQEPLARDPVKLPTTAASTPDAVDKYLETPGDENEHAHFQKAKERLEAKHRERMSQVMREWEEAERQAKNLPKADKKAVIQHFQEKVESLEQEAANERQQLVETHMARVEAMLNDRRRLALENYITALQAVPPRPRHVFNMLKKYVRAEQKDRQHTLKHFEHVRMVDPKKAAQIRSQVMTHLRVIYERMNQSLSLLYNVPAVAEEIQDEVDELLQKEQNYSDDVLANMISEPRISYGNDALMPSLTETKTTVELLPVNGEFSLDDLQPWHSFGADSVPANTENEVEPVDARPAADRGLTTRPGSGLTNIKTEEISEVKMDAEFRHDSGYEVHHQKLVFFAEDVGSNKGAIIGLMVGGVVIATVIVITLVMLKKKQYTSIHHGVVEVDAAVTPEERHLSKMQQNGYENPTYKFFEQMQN

The inhibition is the relative decrease from the control value, in per cent. As to `COc1cc(/C=C/B2OC(C)(C)C(C)(C)O2)cc(OC)c1`, the Activity is recorded as 4.53 nmol/mg in data set [1]; 4.49 nmol/mg in data set [2]; “Non-toxic” in data set [3]; 27.98 nmol/mg in data set [4]; 25.36 nmol/mg in [6]; 53.36 nmol/mg in [7]. The Activity in [9] was 48.18 nmol/mg. In addition, the inhibition entry in data set [5] and in data set [8] was “inactive” throughout. Further, the inhibition at 5 µM in data set [10] was below 50%.

As a reminder, the pIC50 is −log10 of the IC50, conventionally taken in molar units. For `OB(O)/C=C/c1ccccc1` [STYRYLBORONIC ACID], the Activity in [1] is on record as 4.25 nmol/mg; in [2], 4.6 nmol/mg; in [3], “Non-toxic”; in data set [4], 30.62 nmol/mg; in [6], 21.84 nmol/mg; in data set [7], 53.23 nmol/mg. Moreover, the Activity in data set [9] came out at 42.22 nmol/mg. Besides, the outcome in data set [11] and in data set [13] was inactive. The pIC50 in data set [12] is 5.09. Further, the inhibition entry in data set [5] and in [8] was “inactive” each time.

Take `OB(O)/C=C/C1CCCCC1`: the Activity in [1] is reported as 6.03 nmol/mg; in [2], 4.37 nmol/mg; in data set [3], “Non-toxic”; in data set [4], 35.58 nmol/mg; in data set [6] it was 24.06 nmol/mg; in [7], 45.38 nmol/mg. In addition, in [9], the Activity was 37.12 nmol/mg. Also, in [14], the “inhibition (INH)” value is above 50%. The inhibition result in data set [5] and in data set [8] was “inactive” in each case. The inhibition at 5 µM in data set [10] was below 50%.

For `OB(O)c1ccc(C(F)(F)F)cc1`, the Activity in data set [1] was 5.85 nmol/mg; in data set [2], 5.76 nmol/mg; in data set [3] it was “Non-toxic”; in data set [4], 26.59 nmol/mg; in data set [6], 23.32 nmol/mg; in data set [7], 73.23 nmol/mg. Further, in data set [9], the Activity came to 45.36 nmol/mg. For the same compound, the inhibition entry in data set [5] and in [8] was “inactive” each time. In addition, the inhibition at 5 µM in data set [10] was below 50%.

For the compound `COc1cc(/C=C/B(O)O)cc(OC)c1`, the Activity is listed as 6.23 nmol/mg in data set [1]; 4.7 nmol/mg in data set [2]; “Non-toxic” in data set [3]; 32.03 nmol/mg in data set [4]; 23.11 nmol/mg in [6]; 74.75 nmol/mg in data set [7]. The Activity in [9] amounted to 42.79 nmol/mg. Also, the inhibition entry in data set [5] and in data set [8] was “inactive” in each case. For the same compound, the inhibition at 5 µM in [10] was below 50%.

For `OB(O)/C=C/c1ccc(C(F)(F)F)cc1`, the Activity in data set [1] was 4.47 nmol/mg; in data set [2], 4.3 nmol/mg; in [3], “Non-toxic”; in data set [4], 27.02 nmol/mg; in data set [6], 31.48 nmol/mg; in data set [7] it was 38.23 nmol/mg. The Activity in data set [9] is on record as 35.67 nmol/mg. The “inhibition (INH)” value in data set [14] is given as above 50%. Further, the result in [11] and in [13] was inactive. Also, the pIC50 in data set [12] is 5.55. Also, the inhibition result in data set [5] and in data set [8] was “inactive” each time.

For `CC1(C)OB(/C=C/c2cccc(C(F)(F)F)c2)OC1(C)C`, the Activity is 4.75 nmol/mg in [1]; 5.53 nmol/mg in data set [2]; “Non-toxic” in data set [3]; 43.29 nmol/mg in data set [4]; 33.77 nmol/mg in [6]; 45.55 nmol/mg in data set [7]. In [9], the Activity is reported as 44.03 nmol/mg. Besides, in [14], the “inhibition (INH)” value is given as above 50%. Further, the inhibition result in [5] and in data set [8] was “inactive” in each case. For the same compound, in data set [10], the inhibition at 5 µM is below 50%.

Consider `CCCCC/C=C/B(O)O`, for which the Activity in data set [1] is 3.94 nmol/mg; in data set [2], 4.65 nmol/mg; in [3], “Non-toxic”; in [4] it was 27.22 nmol/mg; in [6] it was 27.35 nmol/mg; in [7], 59.21 nmol/mg. In addition, in data set [9], the Activity amounted to 40.34 nmol/mg. Also, the inhibition entry in data set [5] and in [8] was “inactive” each time. In addition, the inhibition at 5 µM in data set [10] was below 50%.

On to `CC1(C)OB(/C=C/c2ccc(F)cc2F)OC1(C)C`, for which the Activity in [1] is 6.06 nmol/mg; in data set [2], 5.33 nmol/mg; in data set [3], “Non-toxic”; in data set [4], 34.77 nmol/mg; in [6] it was 31.51 nmol/mg; in [7], 53.1 nmol/mg. The Activity in data set [9] is on record as 39.76 nmol/mg. Further, the inhibition result in data set [5] and in [8] was “inactive” in each case. Further, the inhibition at 5 µM in [10] is below 50%.

As to `OB(O)c1ccccc1` [PHENYLBORONIC ACID], the Activity is 4.85 nmol/mg in data set [1]; 5.85 nmol/mg in data set [2]; “Non-toxic” in data set [3]; 28.01 nmol/mg in data set [4]; 28.62 nmol/mg in data set [6]; 52.78 nmol/mg in data set [7]. For the same compound, the Activity in data set [9] came to 40.75 nmol/mg. For the same compound, the inhibition entry in [5] and in data set [8] was “inactive” in each case. Also, the inhibition at 5 µM in data set [10] is below 50%.

On to `COc1ccc(/C=C/B(O)O)cc1`, for which the Activity was 6 nmol/mg in [1]; 4.56 nmol/mg in [2]; “Non-toxic” in [3]; 26.05 nmol/mg in [4]; 26.2 nmol/mg in data set [6]; 58.76 nmol/mg in data set [7]. Besides, the Activity in data set [9] came to 44.35 nmol/mg. Besides, the inhibition entry in data set [5] and in data set [8] was “inactive” each time. Also, the inhibition at 5 µM in [10] was below 50%.

`CC1(C)OB(/C=C/c2ccccc2)OC1(C)C`: the Activity is on record as 4.89 nmol/mg in data set [1]; 3.87 nmol/mg in data set [2]; “Non-toxic” in data set [3]; 37.04 nmol/mg in data set [4]; 34.74 nmol/mg in data set [6]; 51.76 nmol/mg in data set [7]. In addition, in [9], the Activity turned out to be 40.71 nmol/mg. Moreover, the inhibition entry in data set [5] and in [8] was “inactive” each time. For the same compound, the inhibition at 5 µM in data set [10] was below 50%.

Regarding `CN1CC(=O)OB(/C=C/c2ccccc2)OC(=O)C1`, the Activity is reported as 5.01 nmol/mg in [1]; 6.11 nmol/mg in [2]; “Non-toxic” in data set [3]; 39.38 nmol/mg in data set [4]; 35.2 nmol/mg in data set [6]; 57.54 nmol/mg in data set [7]. Besides, the Activity in data set [9] turned out to be 41.96 nmol/mg. Further, the inhibition entry in [5] and in data set [8] was “inactive” each time. Moreover, the pIC50 in [15] was 3.87. For the same compound, in [10], the inhibition at 5 µM is below 50%.

In the case of `OB(O)/C=C/c1ccc(F)cc1`, the Activity in [1] is 4.58 nmol/mg; in [2], 4.75 nmol/mg; in [3], “Non-toxic”; in data set [4] it was 27.42 nmol/mg; in [6] it was 28.19 nmol/mg; in [7], 52.64 nmol/mg. Further, in data set [9], the Activity is listed as 37.73 nmol/mg. For the same compound, the “inhibition (INH)” value in data set [14] is listed as above 50%. Moreover, the inhibition result in data set [5] and in data set [8] was “inactive” in each case. The inhibition at 5 µM in data set [10] is below 50%.
